Measurements: PMC5298231, “The Malaria Parasite's Lactate Transporter PfFNT Is the Target of Antiplasmodial Compounds Identified in Whole Cell Phenotypic Screens” (PLoS Pathogens, 2017)

Tested on: erythrocytes infected with 3D7 trophozoites
Type: cell-based, Plasmodium falciparum
Conditions: Av 3hr; 6 μM

## COc1ccc2c(c1)OC(O)(C(F)(F)C(F)(F)F)CC2=O (stereo not shown) [MMV007839]
  2-Hydroxyglutarate log2 ratio (+MMV007839/-MMV007839): -0.6103
  2-Ketoglutarate log2 ratio (+MMV007839/-MMV007839): -0.8232
  3-Phosho-D-glycerate log2 ratio (+MMV007839/-MMV007839): 0.07426
  3-Phospho-serine log2 ratio (+MMV007839/-MMV007839): -0.4035
  4-Aminobutanoate log2 ratio (+MMV007839/-MMV007839): 0.8488
  5-Phosphoribosyl-1-pyrophosphate log2 ratio (+MMV007839/-MMV007839): 0.5077
  ADP log2 ratio (+MMV007839/-MMV007839): -0.7166
  AMP log2 ratio (+MMV007839/-MMV007839): -0.5704
  ATLS log2 ratio (+MMV007839/-MMV007839): -0.2347
  ATP log2 ratio (+MMV007839/-MMV007839): -0.2177
  Acetyl-CoA log2 ratio (+MMV007839/-MMV007839): -0.7235
  Acetyl-L-alanine log2 ratio (+MMV007839/-MMV007839): -0.3599
  Adenine log2 ratio (+MMV007839/-MMV007839): -0.8446
  Arginine log2 ratio (+MMV007839/-MMV007839): 0.2396
  Asparagine log2 ratio (+MMV007839/-MMV007839): -0.1753
  Aspartic Acid log2 ratio (+MMV007839/-MMV007839): -0.3736
  CDP log2 ratio (+MMV007839/-MMV007839): -0.5752
  CDP-ethanolamine log2 ratio (+MMV007839/-MMV007839): 0.02366
  CMP log2 ratio (+MMV007839/-MMV007839): -0.08882
  CTP log2 ratio (+MMV007839/-MMV007839): -0.3119
  Cholesteryl sulfate log2 ratio (+MMV007839/-MMV007839): -0.1335
  Citrate log2 ratio (+MMV007839/-MMV007839): -0.1028
  CoA log2 ratio (+MMV007839/-MMV007839): -0.556
  Cyclic AMP log2 ratio (+MMV007839/-MMV007839): -0.7854
  Cytidine log2 ratio (+MMV007839/-MMV007839): -0.2914
  D-Glucono-1-4-lactone log2 ratio (+MMV007839/-MMV007839): 1.992
  DALT log2 ratio (+MMV007839/-MMV007839): -0.8981
  DEVG log2 ratio (+MMV007839/-MMV007839): -0.08263
  DGLA log2 ratio (+MMV007839/-MMV007839): -0.7349
  DLS log2 ratio (+MMV007839/-MMV007839): -0.6175
  Deoxycytidine log2 ratio (+MMV007839/-MMV007839): 1.594
  Dihydroorotate log2 ratio (+MMV007839/-MMV007839): -1.064
  ESFG log2 ratio (+MMV007839/-MMV007839): -0.07747
  EVGG log2 ratio (+MMV007839/-MMV007839): -0.1694
  Erythrose 4-phosphate log2 ratio (+MMV007839/-MMV007839): -0.2579
  FAD log2 ratio (+MMV007839/-MMV007839): -0.4239
  FMN log2 ratio (+MMV007839/-MMV007839): -0.4985
  Farnesyl diphosphate log2 ratio (+MMV007839/-MMV007839): -0.04123
  Folate log2 ratio (+MMV007839/-MMV007839): -0.3602
  Fructose-1-6-bisphosphate log2 ratio (+MMV007839/-MMV007839): 1.146
  Fructose-6-Phosphate log2 ratio (+MMV007839/-MMV007839): 0.05598
  GDP log2 ratio (+MMV007839/-MMV007839): -1.202
  GDP-mannose log2 ratio (+MMV007839/-MMV007839): -0.4414
  GMP log2 ratio (+MMV007839/-MMV007839): -1.665
  GTP log2 ratio (+MMV007839/-MMV007839): -0.7051
  Geranylgeranyl pyrophosphate log2 ratio (+MMV007839/-MMV007839): -0.6827
  Gluconate log2 ratio (+MMV007839/-MMV007839): -0.02575
  Glucose-6-Phosphate log2 ratio (+MMV007839/-MMV007839): -0.3489
  Glutamate log2 ratio (+MMV007839/-MMV007839): -0.07518
  Glutamine log2 ratio (+MMV007839/-MMV007839): 0.8027
  Glutathione disulfide log2 ratio (+MMV007839/-MMV007839): -0.1266
  Glutathione log2 ratio (+MMV007839/-MMV007839): -0.02749
  Glyceraldehyde 3-phosphate log2 ratio (+MMV007839/-MMV007839): -0.5897
  Glycerone phosphate log2 ratio (+MMV007839/-MMV007839): 0.4029
  HLD log2 ratio (+MMV007839/-MMV007839): -0.9223
  HVDD log2 ratio (+MMV007839/-MMV007839): -1.392
  Histidine log2 ratio (+MMV007839/-MMV007839): 0.6908
  Homoserine log2 ratio (+MMV007839/-MMV007839): 0.249
  Hydroxy-L-proline log2 ratio (+MMV007839/-MMV007839): 0.1081
  Hypoxanthine log2 ratio (+MMV007839/-MMV007839): 0.2683
  IDP log2 ratio (+MMV007839/-MMV007839): 0.1036
  IMP log2 ratio (+MMV007839/-MMV007839): -0.04113
  Inosine log2 ratio (+MMV007839/-MMV007839): 0.2492
  Isoleucine log2 ratio (+MMV007839/-MMV007839): 0.01345
  LD log2 ratio (+MMV007839/-MMV007839): 0.008648
  Lactate log2 ratio (+MMV007839/-MMV007839): 2.632
  Leucine log2 ratio (+MMV007839/-MMV007839): -0.1293
  Lysine log2 ratio (+MMV007839/-MMV007839): 0.8307
  Malate log2 ratio (+MMV007839/-MMV007839): -0.2233
  Mannitol log2 ratio (+MMV007839/-MMV007839): -0.2308
  Methionine log2 ratio (+MMV007839/-MMV007839): -0.1652
  Myristic acid log2 ratio (+MMV007839/-MMV007839): -0.3456
  N-Acetyl-glutamate log2 ratio (+MMV007839/-MMV007839): -0.8123
  N-Carbamoyl-L-aspartate log2 ratio (+MMV007839/-MMV007839): -1.502
  NAD+ log2 ratio (+MMV007839/-MMV007839): 0.03216
  NADH log2 ratio (+MMV007839/-MMV007839): -1.72
  NADP+ log2 ratio (+MMV007839/-MMV007839): -0.3346
  Octoluse Bisphosphate log2 ratio (+MMV007839/-MMV007839): 1.811
  Ornithine log2 ratio (+MMV007839/-MMV007839): -0.1015
  Orotate log2 ratio (+MMV007839/-MMV007839): -1.466
  Orotidine 5-phosphate log2 ratio (+MMV007839/-MMV007839): -1.489
  Orotidine log2 ratio (+MMV007839/-MMV007839): -1.057
  PAEF log2 ratio (+MMV007839/-MMV007839): -1.307
  PAVH log2 ratio (+MMV007839/-MMV007839): -1.929
  PD log2 ratio (+MMV007839/-MMV007839): 0.2119
  PDAV log2 ratio (+MMV007839/-MMV007839): 0.3685
  PE log2 ratio (+MMV007839/-MMV007839): 0.9141
  PEE log2 ratio (+MMV007839/-MMV007839): -0.2135
  PHF log2 ratio (+MMV007839/-MMV007839): 0.05129
  PPVQ log2 ratio (+MMV007839/-MMV007839): -0.3492
  PVNF log2 ratio (+MMV007839/-MMV007839): -0.8559
  PVQ log2 ratio (+MMV007839/-MMV007839): 0.3164
  PVQA log2 ratio (+MMV007839/-MMV007839): -1.408
  Pantothenate log2 ratio (+MMV007839/-MMV007839): -0.2954
  Phenylalanine log2 ratio (+MMV007839/-MMV007839): -0.1326
  Phosphoenolpyruvate log2 ratio (+MMV007839/-MMV007839): 0.2604
  Pipecolate log2 ratio (+MMV007839/-MMV007839): 0.1041
  Proline log2 ratio (+MMV007839/-MMV007839): -0.09895
  Pyridoxine log2 ratio (+MMV007839/-MMV007839): -0.07403
  Pyruvate log2 ratio (+MMV007839/-MMV007839): 1.858
  Ribose-5-phosphate log2 ratio (+MMV007839/-MMV007839): 0.8813
  S-Adenosyl-L-homocysteine log2 ratio (+MMV007839/-MMV007839): -0.314
  SDGLA log2 ratio (+MMV007839/-MMV007839): -0.3844
  SFGD log2 ratio (+MMV007839/-MMV007839): -0.2955
  Sedoheptoluse bisphosphate log2 ratio (+MMV007839/-MMV007839): -0.1481
  Sedoheptulose-1/7-phosphate log2 ratio (+MMV007839/-MMV007839): 0.2199
